Results taken from article PMC9232501, “Results of the phase I CCTG IND.231 trial of CX-5461 in patients with advanced solid tumors enriched for DNA-repair deficiencies” (Nature Communications, 2022).
“And” between values parts separate entries of the source, which are not always exact repeats. Identical values can stand only once.

Experiments:
[1] = test system: BRCA2 and BRCA1-deficient tumor models; conditions: in vitro and in vivo, independently of RNA polymerase 1 inhibition; cited from earlier work
[2] = Plasma pharmacokinetics of CX-5461 (HPLC-MS/MS, non-compartmental); type: in vivo, human; set-up: Day 1 CX-5461 plasma concentration: unit not given here; conditions: for Day 1 Cmax / Day 8 or 15 Cmax / Day 1 AUC / Day 8 or 15 AUC: one patient per datapoint; for Day 1 Cmax / Day 8 or 15 Cmax: in ng/mL; for Day 1 AUC / Day 8 or 15 AUC: in ng·h/mL (unit assumed)
Description: PK was assessed on all patients in the escalation phase. Venous blood samples were collected on treatment days 1, 8, and 15 (where applicable), and plasma CX-5461 was analyzed with HPLC-MS/MS (schedule details in Supplementary Table 3). PK parameters were calculated with non-compartmental methods. […] The protocol was amended to allow submission of a ctDNA sample and in a further amendment, a mandatory skin biopsy (pre-treatment and cycle 1 day 15) to study phototoxic effects. Fresh tumor biopsies were optional.
Supplementary Table 3. Schedule for collection of CX5461 pharmacokinetics
During infusion at 30 minutes
Immediately post infusion then:
C1D1 30 minutes post infusion
C1D2 24 hours post infusion
C1D3 48 hours post infusion
C1D4 72 hours post infusion
Immediately post infusion then
C1D15 30 minutes post infusion
C1D16 24 hours post infusion
In addition to the specific time points listed above, additional samples were to be collected from […]

## Cc1cnc(CNC(=O)c2c(=O)c3ccc(N4CCCN(C)CC4)nc3n3c2sc2ccccc23)cn1 [CX-5461]
[1]
  synthetic lethality: synthetically lethal
[2]; 50 mg/m2, Time 0, individual patients
  Day 1 CX-5461 plasma concentration: 623
[2]; 50 mg/m2, Time 24, individual patients
  Day 1 CX-5461 plasma concentration: 40.3 and 34
[2]; 50 mg/m2, Time 48, individual patients
  Day 1 CX-5461 plasma concentration: 40 and 22.9
[2]; 50 mg/m2, Time 72, individual patients
  Day 1 CX-5461 plasma concentration: 16.6 and 12.9
[2]; 100 mg/m2, Time 24, individual patients
  Day 1 CX-5461 plasma concentration: 53.2 and 76.4 and 34.5 and 70.1
[2]; 100 mg/m2, Time 48, individual patients
  Day 1 CX-5461 plasma concentration: 49 and 52 and 48
[2]; 100 mg/m2, Time 72, individual patients
  Day 1 CX-5461 plasma concentration: 28 and 33.5 and 33.8
[2]; 150 mg/m2, Time 0, individual patients
  Day 1 CX-5461 plasma concentration: 415 and 821
[2]; 150 mg/m2, Time 24, individual patients
  Day 1 CX-5461 plasma concentration: 176 and 102 and 165 and 350
[2]; 150 mg/m2, Time 48, individual patients
  Day 1 CX-5461 plasma concentration: 135 and 49 and 101 and 265
[2]; 150 mg/m2, Time 72, individual patients
  Day 1 CX-5461 plasma concentration: 90.2 and 31.2 and 92.6 and 180
[2]; 200 mg/m2, Time 0, individual patients
  Day 1 CX-5461 plasma concentration: 218 and 3210 and 1850 and 745
[2]; 200 mg/m2, Time 24, individual patients
  Day 1 CX-5461 plasma concentration: 102 and 78.2 and 124
[2]; 200 mg/m2, Time 48, individual patients
  Day 1 CX-5461 plasma concentration: 55 and 145 and 69.8 and 79.1
[2]; 200 mg/m2, Time 72, individual patients
  Day 1 CX-5461 plasma concentration: 52.5 and 43.9 and 51.7
[2]; 250 mg/m2, Time 24, individual patients
  Day 1 CX-5461 plasma concentration: 125 and 233
[2]; 250 mg/m2, Time 48, individual patients
  Day 1 CX-5461 plasma concentration: 101 and 169
[2]; 250 mg/m2, Time 72, individual patients
  Day 1 CX-5461 plasma concentration: 68 and 111
[2]; 325 mg/m2, Time 24, individual patients
  Day 1 CX-5461 plasma concentration: 160 and 193
[2]; 325 mg/m2, Time 48, individual patients
  Day 1 CX-5461 plasma concentration: 132 and 97
[2]; 325 mg/m2, Time 72, individual patients
  Day 1 CX-5461 plasma concentration: 121 and 69.4
[2]; 475 mg/m2, Time 24, individual patients
  Day 1 CX-5461 plasma concentration: 222 and 204
[2]; 475 mg/m2, Time 48, individual patients
  Day 1 CX-5461 plasma concentration: 199 and 146
[2]; 475 mg/m2, Time 72, individual patients
  Day 1 CX-5461 plasma concentration: 203 and 132
[2]; 650 mg/m2, Time 24, individual patients
  Day 1 CX-5461 plasma concentration: 255 and 361 and 196 and 161 and 173 and 233
[2]; 650 mg/m2, Time 48, individual patients
  Day 1 CX-5461 plasma concentration: 234 and 439 and 165 and 107 and 154
[2]; 650 mg/m2, Time 72, individual patients
  Day 1 CX-5461 plasma concentration: 322 and 261 and 170 and 87.5 and 137 and 154
[2]; B: 325 mg/m2, Time 24, individual patients
  Day 1 CX-5461 plasma concentration: 254 and 120 and 133 and 175
[2]; B: 325 mg/m2, Time 48, individual patients
  Day 1 CX-5461 plasma concentration: 156 and 435 and 136
[2]; B: 325 mg/m2, Time 72, individual patients
  Day 1 CX-5461 plasma concentration: 93.9 and 199 and 103
[2]; B: 475 mg/m2, Time 24, individual patients
  Day 1 CX-5461 plasma concentration: 401 and 324 and 275 and 184
[2]; B: 475 mg/m2, Time 48, individual patients
  Day 1 CX-5461 plasma concentration: 288 and 213 and 252
[2]; B: 475 mg/m2, Time 72, individual patients
  Day 1 CX-5461 plasma concentration: 187 and 199 and 113
[2]; Dose level 50 (mg/m2)
  Day 1 Cmax: 623 and 1070 and 830 and 388
  Day 8 or 15 Cmax: 616 and 1040 and 271
  Day 1 AUC: 4080 and 3310
  Day 8 or 15 AUC: 6520 and 1970 and 4580
[2]; Dose level 100 (mg/m2)
  Day 1 Cmax: 1580 and 662 and 799 and 1330
  Day 8 or 15 Cmax: 1030 and 243
  Day 1 AUC: 4870 and 3830 and 5290
  Day 8 or 15 AUC: 7780 and 8830 and 2350
[2]; Dose level 150 (mg/m2)
  Day 1 Cmax: 2370 and 1080 and 1010
  Day 8 or 15 Cmax: 1970 and 1090 and 697
  Day 1 AUC: 12000 and 19500 and 11500 and 7650
  Day 8 or 15 AUC: 18700 and 23900 and 12600
[2]; Dose level 200 (mg/m2)
  Day 1 Cmax: 265 and 3210 and 805
  Day 8 or 15 Cmax: 1560 and 170 and 2180 and 795
  Day 1 AUC: 5690 and 22300 and 12900 and 8410
  Day 8 or 15 AUC: 9650 and 2530 and 25500 and 14100
[2]; Dose level 250 (mg/m2)
  Day 1 Cmax: 867 and 2350 and 1010
  Day 8 or 15 Cmax: 1290 and 368 and 654
  Day 1 AUC: 16300 and 16100
  Day 8 or 15 AUC: 21800 and 18700
[2]; Dose level 325 (mg/m2)
  Day 1 Cmax: 938 and 960
  Day 8 or 15 Cmax: 482 and 1190
  Day 1 AUC: 12800 and 11200
  Day 8 or 15 AUC: 15200
[2]; Dose level 475 (mg/m2)
  Day 1 Cmax: 1460 and 2510
  Day 8 or 15 Cmax: 1500 and 1940
  Day 1 AUC: 17900 and 17100
  Day 8 or 15 AUC: 7410 and 31300 and 32900
[2]; Dose level 650 (mg/m2)
  Day 1 Cmax: 4290 and 1840 and 2280 and 3810 and 3180
  Day 8 or 15 Cmax: 6050 and 2790 and 2540 and 5480 and 3990
  Day 1 AUC: 29600 and 16700 and 21400
  Day 8 or 15 AUC: 48200 and 23200 and 59300 and 44400 and 13900
[2]; Dose level B: 325 (mg/m2)
  Day 1 Cmax: 1030 and 1200 and 1520
  Day 8 or 15 Cmax: 3590 and 1510 and 1240
  Day 1 AUC: 19700 and 20400 and 21500
  Day 8 or 15 AUC: 48100 and 7080 and 11700 and 7620
[2]; Dose level B: 475 (mg/m2)
  Day 1 Cmax: 2510 and 2620 and 1660 and 982 and 953
  Day 8 or 15 Cmax: 1370 and 2630 and 6800 and 1020
  Day 1 AUC: 43600 and 26400 and 23500 and 32100
  Day 8 or 15 AUC: 18300 and 14200 and 52600 and 11900 and 7800
[2]; human, plasma, intravenous, 50 mg/m2, 50 mg/m2, Time 0.5, individual patients, read-out: Day 1 CX-5461 plasma concentration
  concentration at 0.5 h: 155 ng/mL
[2]; human, plasma, intravenous, 50 mg/m2, 50 mg/m2, Time 1, individual patients, read-out: Day 1 CX-5461 plasma concentration
  concentration at 1 h: 104 ng/mL
[2]; human, plasma, intravenous, 50 mg/m2, 50 mg/m2, Time 2, individual patients, read-out: Day 1 CX-5461 plasma concentration
  concentration at 2 h: 96.5 ng/mL
[2]; human, plasma, intravenous, 50 mg/m2, 50 mg/m2, Time 4, individual patients, read-out: Day 1 CX-5461 plasma concentration
  concentration at 4 h: 74.9 ng/mL
[2]; human, plasma, intravenous, 50 mg/m2, 50 mg/m2, Time 6, individual patients, read-out: Day 1 CX-5461 plasma concentration
  concentration at 6 h: 61.6 ng/mL
[2]; human, plasma, intravenous, 50 mg/m2, 50 mg/m2, Time 24, individual patients, read-out: Day 1 CX-5461 plasma concentration
  concentration at 24 h: 40 ng/mL
